Test results as given in patent US8415334B2, “Method of combating infection” (Morvus Technology Ltd., priority 2005, dated 2013).
Values joined by “and” are separate entries in the source; they are usually repeats but may differ in a detail not shown here. Identical values can stand only once. Like-named read-outs stand apart in the source and are kept apart here. Values belong to the molecule of their own block, whether it stands above or below them.

Assays:
T cruzi [1] = assay: In vivo activity against T. cruzi in BALB/c mice (blood parasites, survival); set-up: species or system Trypanosoma cruzi; settings: for # of type of field (blood parasites per fields): individual mice
L. donovani HU3 = assay: In vivo activity against L. donovani HU3 in mice (liver parasite load, LDU); set-up: species or system Leishmania donovani; settings: for ED50: Leishmania donovani
Description: (§1) The infection and treatment of the animals was performed as described by Croft and Yardley and references there in (Croft & Yardley (1999) Animal models of visceral leishmaniasis. In Handbook of Animal Models of Infection, Zak, O. (ed) pp 783-787, Academic Press, London). […] The liver was removed from freshly sacrificed animals and weighed. Smears were then prepared from the livers on microscope slides and fixed with methanol and stained with Giemsa stain. The number of parasites per 500 liver cells was determined microscopically for each experimental animal. This figure is multiplied by total liver weight (mg) and this figure (the Leishman-Donovan unit (LDU)) is used as the basis for calculating the difference in parasite load between treated and untreated animals (Croft & Yardley, 1999 supra).
(§2) Stibogluconate at its MTD (15 mg/kg×5 SC) was used as the control compound for these experiments.

T. cruzi (tulahuen CL2) = assay: microbe, parasite or virus in culture; settings: Trypanosoma cruzi, L6, read-out: T. cruzi (tulahuen CL2) IC50
Description: The Trypanosoma cruzi (MHOM/CL/00/Tulahuen) transfected with β-galactosidase (Lac Z) gene, was used (Buckner et al (1996) Antimicrobial Agents and Chemotherapy 40(11), 2592-2597. The strain was maintained on an L-6 (rat skeletal myoblast cell line obtained from European Collection of Animal Cell Cultures (ECACC, Salisbury, UK)) cell-layer in RPMI 1640 w/o phenol red medium supplemented with 10% heat inactivated fetal calf serum. All cultures and assays were conducted at 37° C. under an atmosphere of 5% CO2 in air.
For the assays, the compound was further diluted to the appropriate concentration using complete medium.
Assays were performed in sterile 96-well microliter plates, each well containing 100 μl medium with 2×10^3 L-6 cells. After 24 hours 50 μl of a trypanosome suspension containing 5×10^3 trypomastigote bloodstream forms from culture was added to the wells. 48 hours later the medium was removed from the wells and replaced by 100 μl fresh medium with or without a serial drug dilution. […] Nifurtimox was used as the reference drug.
The compounds were tested in triplicate at 4 concentrations (30-10-3-1 μg/ml). Nifurtimox was included as the reference drug.
The same protocol was used and the IC50s determined using an extended dose range adjusted as appropriate.

L. infantum = assay: In vitro screening, Leishmania in mouse peritoneal macrophages; assay type: cell-based; settings: Peritoneal macrophage
Description: One strain of Leishmania spp. (Leishmania donovani MHOM/ET/67/L82, also known as LV9,HU3) was used. The strain is maintained in the Syrian Hamster (Mesocricetus auratus). Amastigotes were collected from the spleen of an infected hamster and spleen parasite burden was assessed using the Stauber technique.
Primary peritoneal mouse (CD1) macrophages were collected 1 or 2 days after a macrophage production stimulation with an i.p. injection of 2 ml 2% soluble starch. All cultures and assays were conducted at 37° C. under an atmosphere of 5% CO2.
The stock was pre-diluted to 60 μg/ml in RPMI 1640+10% heat inactivated fetal calf serum. Assays were performed in sterile 16-well tissue culture slides, each well containing 50 μl of the compound dilutions together with 100 μl of macrophage/parasite inoculum (4×10^5 macrophages/ml and 4×10^6 parasites/ml). The inoculum was prepared in RPMI-1640 medium, supplemented with 10% heat inactivated fetal calf serum. […] After 5 days of incubation, parasite growth was microscopically assessed after staining the cells with a 10% Giemsa solution. The level of infection/well was evaluated by counting the number of infected macrophages per 100 macrophages. The results expressed as % reduction in parasite burden compared to control wells, were transferred into a graphic programme (EXCEL), sigmoidal inhibitions curves determined and IC50 values calculated. […]

[2] = Cytotoxicity assays against a range of human cell lines; assay type: cell-based; settings: range of human cell lines (not named)
T. colubriformis = assay: Integrated in vitro screening, T. colubriformis; assay type: cell-based; settings: for IC50: Trichostrongylus colubriformis, read-out: T. colubriformis, IC50
T. b. brucei = assay: Integrated in vitro screening, T. b. brucei; assay type: cell-based; settings: Trypanosoma brucei, read-out: T. b. brucei, IC50
[3] = mouse, in vivo
Description: as §1, §2

P. falciparum (Ghana) = assay: Integrated in vitro screening, P. falciparum (Ghana); assay type: cell-based; settings: Plasmodium falciparum; for IC50: read-out: P. falciparum (Ghana), IC50
T cruzi [4] = assay: In vivo activity against T. cruzi in BALB/c mice (blood parasites, survival); set-up: species or system Trypanosoma cruzi; settings: for # of type of field (blood parasites per fields): 0.3 mg/kg i.p. x5, individual mice
Description: At a dose of 0.3 mg/kg (IP×5, daily) all the mice survived for the 50 days before the experiment was terminated.

Compound: O=C(Cn1ccnc1[N+](=O)[O-])NCc1ccccc1 [benznidazole]
- parasites in the blood, compared with tretazicar 3.0 mg/kg (T cruzi [1]; 45 mg/kg (p.o.×5 daily)): equivalent effect
- # of type of field (blood parasites per fields) (T cruzi [1]; 45 mg/kg p.o. x5, day 6 post infection): 0/20 and 3/20 (2×) and 4/20 and 1/20
- # of type of field (blood parasites per fields) (T cruzi [1]; 45 mg/kg p.o. x5, day 13 post infection): 0/10

Compound: O.O.O.O.O.O.O.O.O.O=C([O-])[C@@H]1[O][Sb]2([O-])([O][Sb]34([OH])[O][C@H]([C@H](O)CO)[C@H]([O]3)[C@H](C(=O)[O-])[O]4)[O][C@H]([C@H](O)CO)[C@@H]1[O]2.[Na+].[Na+].[Na+] [Stibogluconate, sodium stibogluconate]
- effect on parasite counts (L. donovani HU3; SCID mouse model, MTD 15 mg/kg×5 SC): little effect

Compound: CC1CS(=O)(=O)CCN1/N=C/c1ccc([N+](=O)[O-])o1 (centres unmarked) [Nifurtimox]
- IC50 (T. cruzi (tulahuen CL2)): 0.45 µM

Compound: NC(=O)c1cc(N2CC2)c([N+](=O)[O-])cc1[N+](=O)[O-] [Tretazicar, 5-(aziridin-1-yl)-2,4-dinitrobenzamide]
- IC50 (L. infantum): 0.08 µM
- IC50 [2]: > 50 µM
- activity against tested strains (T. colubriformis; T. colubriformis, in words): No activity
- IC50 (T. colubriformis; in vitro): > 32 µM
- # of type of field (blood parasites per fields) (T cruzi [1]; 1 mg/kg i.p. x5, day 6 post infection): 0/20 (3×) and 1/20 (2×)
- # of type of field (blood parasites per fields) (T cruzi [1]; 1 mg/kg i.p. x5, day 13 post infection): 0/10 (2×) and 3/10
- parasites in the blood (T cruzi [1]; 3.0 mg/kg (IP×5, daily)): cleared all the parasites from the blood
- # of type of field (blood parasites per fields) (T cruzi [1]; 3 mg/kg i.p. x5, day 6 post infection): 5/20 and 12/20 and 4/20 and 1/20 (2×)
- # of type of field (blood parasites per fields) (T cruzi [1]; 3 mg/kg i.p. x5, day 13 post infection): 0/10
- # of type of field (blood parasites per fields) (T cruzi [1]; 10 mg/kg i.p. x5, day 6 post infection): 0/20 (3×) and 1/20 and 2/20
- # of type of field (blood parasites per fields) (T cruzi [1]; 10 mg/kg i.p. x5, day 13 post infection): 0/10
- IC50 (T. b. brucei; in vitro): 5 µM
- drug related toxicity, as measured by body weight loss [3]: No drug related toxicity
- dose at which significant toxicity was observed ([3]; 5 days): 10 mg/kg×5
- ED90 (L. donovani HU3; BALB/c mice, IP × 5 Daily): 1.41 mg/kg
- ED90 (L. donovani HU3; BALB/c mice, IV × 3 Daily): 1.15 mg/kg
- ED50 (L. donovani HU3; ip, BALB/c mice, IP × 5 Daily): 0.23 mg/kg
- ED50 (L. donovani HU3; iv, BALB/c mice, IV × 3 Daily): 0.19 mg/kg
- ED50 (L. donovani HU3; iv, SCID mice, IV × 5 Daily): 0.18 mg/kg
- ED90 (L. donovani HU3; SCID mice, IV × 5 Daily): 0.35 mg/kg
- IC50 (T. cruzi (tulahuen CL2)): 0.003 µM
- activity against tested strains (P. falciparum (Ghana); in words): No activity
- IC50 (P. falciparum (Ghana); in vitro): > 32 µM
- survival of infected mice (T cruzi [4]; 0.3 mg/kg (IP×5, daily), BALB/c mice, experiment terminated at 50 days): ≥ 50 days
- parasites in the blood (T cruzi [4]; 0.3 mg/kg (IP×5, daily), at 13 days): parasites could still be detected in the blood
- # of type of field (blood parasites per fields) (T cruzi [4]; day 6 post infection): 2/20 and 0/20 (4×)
- # of type of field (blood parasites per fields) (T cruzi [4]; day 13 post infection): 16/5 and 2/5 (2×) and 7/5 and 6/5

Compound: Cc1ccc(C(=O)Nc2ccc(S(=O)(=O)O)c3cc(S(=O)(=O)O)cc(S(=O)(=O)O)c23)cc1NC(=O)c1cccc(NC(=O)Nc2cccc(C(=O)Nc3cc(C(=O)Nc4ccc(S(=O)(=O)O)c5cc(S(=O)(=O)O)cc(S(=O)(=O)O)c45)ccc3C)c2)c1 [Suramin]
- IC50 (T. b. brucei): 0.045 µM

Compound: CCCSc1ccc2nc(NC(=O)OC)[nH]c2c1 [Albendazole]
- IC50 (T. colubriformis): 0.002 µM

- IC50 (P. falciparum (Ghana)): 0.018 µM
Compound: CCN(CC)CCCC(C)Nc1ccnc2cc(Cl)ccc12 (centres unmarked) [Chloroquine]
